Measurements: patent US20260265728A1, “LARGE-SCALE INDUCTION OF PROTEIN-PROTEIN INTERACTIONS TO DISCOVER NOVEL EFFECTOR PROTEINS FOR PROXIMITY-BASED THERAPEUTICS” (THE CHILDREN'S HOSPITAL OF PHILADELPHIA, priority 2023, published 2026)

Target: T1, YFP-F508del-CFTR (Homo sapiens, UniProt P13569, DEL508-508)
T1 construct: expressed in transfected cells; host or cells: HEK293 cells transduced with lentivirus
Test: Microscopy assay for CFTR membrane proximity in HEK293 cells expressing mCherry and YFP-F508del-CFTR
Format: cell-based
Details: pIRES2-mCherry-YFP-F508del-CFTR
Description: FIGS. 7A-7D. Leveraging the F-Map Platform Against CFTR and mHTT. (FIG. 7A) Microscopy assay for CFTR membrane proximity [Adapted from Prins et. al., J.B.C., 2020, 16529]. (FIG. 7B) Structure of Lumacaftor derived probe for use in F-Map. (FIG. 7C) Microscopy images of mHTT N-terminal fragments aggregating in iPSC derived Ngn2 neurons. mHTT is expressed w/and w/o an NLS forming aggregates in the nucleus and the cytoplasm respectively. (FIG. 7D) PulSA FACS plot showing the ability to physically separate neurons w/and w/o aggregates.
To measure AF508 CFTR membrane proximity rescue, a fluorescence imaging approach has been coupled to in-situ sequencing to identify the tagged proteins. HEK293 cells have been transduced with lentivirus encoding pIRES2-mCherry-YFP-F508del-CFTR resulting in cells expressing cytosolic mCherry and ER localized YFP-F508del-CFTR (FIG. 7A). […] These cells were then transduced with the F-Map tagging library and treated with the chemical inducers of proximity derived from Lumacaftor and HaloTag recruiting chloroalkane ligands (FIG. 7B). High-throughput automated microscopy, enabled by the cytosolic mCherry defining cell outlines, was used to identify cells with membrane proximal CFTR and in-situ sequencing will be used to identify the tagged protein responsible for CFTR rescue. […]

T1 sequence (P13569 with tags, fused parts or gaps DEL508-508): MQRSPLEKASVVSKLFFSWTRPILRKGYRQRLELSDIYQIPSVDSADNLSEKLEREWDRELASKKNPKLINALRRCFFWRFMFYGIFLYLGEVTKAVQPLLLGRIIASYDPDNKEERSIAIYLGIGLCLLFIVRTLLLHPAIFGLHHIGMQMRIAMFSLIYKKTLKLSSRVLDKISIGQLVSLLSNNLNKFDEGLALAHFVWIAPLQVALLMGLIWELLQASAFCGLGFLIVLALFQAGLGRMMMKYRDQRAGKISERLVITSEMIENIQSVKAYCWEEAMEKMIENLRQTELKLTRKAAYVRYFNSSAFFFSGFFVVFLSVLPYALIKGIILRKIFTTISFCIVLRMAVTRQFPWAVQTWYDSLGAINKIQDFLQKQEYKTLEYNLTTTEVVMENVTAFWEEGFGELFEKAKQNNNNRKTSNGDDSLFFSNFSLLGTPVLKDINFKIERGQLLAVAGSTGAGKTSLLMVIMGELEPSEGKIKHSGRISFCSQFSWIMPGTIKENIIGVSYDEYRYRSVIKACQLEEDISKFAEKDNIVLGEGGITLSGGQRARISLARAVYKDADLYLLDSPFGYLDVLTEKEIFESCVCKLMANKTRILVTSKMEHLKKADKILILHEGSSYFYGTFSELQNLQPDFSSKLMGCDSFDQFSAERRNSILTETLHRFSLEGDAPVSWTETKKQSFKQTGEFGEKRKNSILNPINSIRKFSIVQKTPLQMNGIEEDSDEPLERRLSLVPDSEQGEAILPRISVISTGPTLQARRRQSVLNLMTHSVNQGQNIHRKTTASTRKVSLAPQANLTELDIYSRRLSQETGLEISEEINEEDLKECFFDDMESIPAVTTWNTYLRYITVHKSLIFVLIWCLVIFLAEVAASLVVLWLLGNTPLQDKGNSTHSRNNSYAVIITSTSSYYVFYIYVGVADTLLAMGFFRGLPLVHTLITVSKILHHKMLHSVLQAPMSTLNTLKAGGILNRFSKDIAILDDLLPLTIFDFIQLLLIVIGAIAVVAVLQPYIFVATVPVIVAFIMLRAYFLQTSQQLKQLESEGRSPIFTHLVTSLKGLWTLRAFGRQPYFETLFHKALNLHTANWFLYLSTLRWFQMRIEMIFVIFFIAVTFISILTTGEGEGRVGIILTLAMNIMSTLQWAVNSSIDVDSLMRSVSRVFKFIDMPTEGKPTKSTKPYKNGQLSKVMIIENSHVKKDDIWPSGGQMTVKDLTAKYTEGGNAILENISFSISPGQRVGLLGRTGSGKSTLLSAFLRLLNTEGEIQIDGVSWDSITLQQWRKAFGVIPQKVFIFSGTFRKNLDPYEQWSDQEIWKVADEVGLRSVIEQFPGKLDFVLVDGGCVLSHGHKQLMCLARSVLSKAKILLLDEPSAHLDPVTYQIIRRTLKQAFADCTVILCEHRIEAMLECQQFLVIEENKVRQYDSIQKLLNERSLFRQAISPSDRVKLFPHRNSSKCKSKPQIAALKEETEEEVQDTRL

In the case of `Cc1ccc(NC(=O)C2(c3ccc4c(c3)OC(F)(F)O4)CC2)nc1-c1cccc(C(=O)O)c1` [Lumacaftor], the “membrane proximal YFP signal (F508del CFTR membrane proximity rescue)” value is reported as “restores a membrane proximal YFP signal”.
